Assay results published in US11371055B2, “Herbicide resistance genes” (CORTEVA AGRISCIENCE LLC, priority 2005, dated 2022).
Where “and” joins values, the source holds several entries; their conditions need not be identical. Equal entries are not always repeated.

Legend:
[1] = system: untransformed commercial rice cultivar Lamont; experiment: 2,4-D DMA tolerance, untransformed rice control; format: in vivo, Oryza sativa; conditions: Lemont Untransformed Control
Text: The following T1 AAD-12 (v1) single segregating locus lines were planted into 3-inch pots containing Metro Mix media: pDAB4101(20)003 and pDAB4101(27)002. At 2-3 leaf stage were sprayed with 140 g ae/ha imazethapyr. Nulls were eliminated and individuals were sprayed at V3-V4 stage in the track sprayer set to 187 L/ha at 1120, 2240 or 4480 g ac/ha 2,4-D DMA (2×, 4×, and 8× typical commercial use rates, respectively). Plants were graded at 7 and 14 DAT and compared to untransformed commercial rice cultivar. ‘Lamont,’ as negative control plants.

KY160 control tobacco = experiment: Elevated 2,4-D DMA rates in greenhouse tobacco, sensitive control; format: in vivo, Nicotiana tabacum
Text: (§1) T1 AAD-12 (v1) plants from an event segregating 3R:1S when selected with 560 g ai/ha Liberty using the same protocol as previously described. T1 AAD-1 (v3) seed was also planted for transformed tobacco controls (see PCT/US2005/014737). Untransformed KY160 was served as the sensitive control. Plants were sprayed using a track sprayer set to 187 L/ha at 140, 560, 2240, 8960, and 35840 g ae/ha 2,4-D DMA and rated 3 and 14 DAT.

T1 AAD-12 (v1) tobacco = experiment: Elevated 2,4-D DMA rates in greenhouse tobacco, AAD-12; format: in vivo, Nicotiana tabacum
Text: as §1

[2] = system: wildtype Maverick soybeans; experiment: 2,4-D spray application on wildtype soybean; format: in vivo, Glycine max
Text: Plants that are transferred to the greenhouse can be assayed for the presence of an active PAT gene further with a non-destructive manner by painting a section of leaf of the T0 primary transformant, or progeny thereof, with a glufosinate solution [0.05-2% v/v Liberty Herbicide, preferably 0.25-1.0% (v/v),=500-2000 ppm glufosinate, Bayer Crop Science]. Depending on the concentration used, assessment for glufosinate injury can be made 1-7 days after treatment. Plants can also be tested for 2,4-D tolerance in a non-destructive manner by selective application of a 2,4-D solution in water (0.25-1% v/v commercial 2,4-D dimethylamine salt formulation, preferably 0.5% v/v=2280 ppm 2,4-D ae) to the terminal leaflet of the newly expanding trifoliolate one or two, preferably two, nodes below the youngest emerging trifolioate. This assay allows assessment of 2,4-D sensitive plants 6 hours to several days after application by assessment of leaf flipping or rotation >90 degrees from the plane of the adjacent leaflets. Plants tolerant to 2,4-D will not respond to 2,4-D. To plants will be allowed to self fertilize in the greenhouse to give rise to T1 seed. T1 plants (and to the extent enough T0 plant clones are produced) will be sprayed with a range of herbicide doses to determine the level of herbicide protection afforded by AAD-12 (v1) and PAT genes in transgenic soybean. Rates of 2,4-D used on T0 plants will typically comprise one or two selective rates in the range of 100-1120 g ae/ha using a track sprayer as previously described. T1 plants will be treated with a wider herbicide dose ranging from 50-3200 g ae/ha 2,4-D. Likewise, T0 and T1 plants can be screened for glufosinate resistance by postemergence treatment with 200-800 and 50-3200 g ae/ha glufosinate, respectively. Glyphosate resistance (in plants transformed with constructs that contain EPSPS) or another glyphosate tolerance gene can be assessed in the T1 generation by postemergence applications of glyphosate with a dose range from 280-2240 g ae/ha glyphosate. Analysis of protein expression will occur as described in below. Individual T0 plants were assessed for the presence of the coding region of the gene of interest (AAD-12 (v1) or PAT v6) and copy number. Determination of the inheritance of AAD-12 (v1) will be made using T1 and T2 progeny segregation with respect to herbicide tolerance as described in previous examples.
The screened plants were then sampled for molecular and biochemical analyses for the confirmation of the AAD12 (v1) genes integration, copy number, and their gene expression levels as described below and reported in Table 25.

[3] = system: R-dichlorprop habituated BY2 tobacco cells; experiment: 2,4-D dose response of tobacco cell suspension (BY2); format: cell-based; conditions: LSBY2C medium
Method: A dose response study was conducted with both the R-dichlorprop habituated PHL cells and the R-dichlorprop habituated BY2 cells where R-dichlorprop was substituted directly for 2,4-D in culture media. Though the focus was on PHL, a dose response was also done with BY2 in case of possible future studies, as well as to help predict the dose response for PHL. For the dichlorprop habituated PHL dose response, the levels of 2,4-D used (on LSBY2C medium with R-dichlorprop) were 0 (the control), 1, 2, 3, 5, 8, 10, 12, 15, 18, 20, 40, 60, 80, […] mg/L 2,4-D. There were four replications per concentration. For the R-dichlorprop habituated BY2 dose response, the levels of 2,4-D used (on LSBY2C medium) were 0 (the control), 1, 2, 3, 5, 8, 10, 20, 30, 40, mg/L 2,4-D.

[4] = system: PAT-only transformed soybean plants; experiment: 2,4-D leaf paint (leaf flip assay) on PAT-only transformed soybean; format: in vivo, Glycine max; set-up: key: 1 = Flip; 0 = No Flip; conditions: event D-2-3 (pDAB4499, PAT, CsVMV)
Text: Plants that are transferred to the greenhouse can be assayed for the presence of an active PAT gene further with a non-destructive manner by painting a section of leaf of the T0 primary transformant, or progeny thereof, with a glufosinate solution [0.05-2% v/v Liberty Herbicide, preferably 0.25-1.0% (v/v),=500-2000 ppm glufosinate, Bayer Crop Science]. Depending on the concentration used, assessment for glufosinate injury can be made 1-7 days after treatment. Plants can also be tested for 2,4-D tolerance in a non-destructive manner by selective application of a 2,4-D solution in water (0.25-1% v/v commercial 2,4-D dimethylamine salt formulation, preferably 0.5% v/v=2280 ppm 2,4-D ae) to the terminal leaflet of the newly expanding trifoliolate one or two, preferably two, nodes below the youngest emerging trifolioate. […] Glyphosate resistance (in plants transformed with constructs that contain EPSPS) or another glyphosate tolerance gene can be assessed in the T1 generation by postemergence applications of glyphosate with a dose range from 280-2240 g ae/ha glyphosate. […] Individual T0 plants were assessed for the presence of the coding region of the gene of interest (AAD-12 (v1) or PAT v6) and copy number. […]
A subset of the initial transformants were assessed in the T0 generation according to the methods above. […]

[5] = Maverick WT individual plants (WT-5, WT-6, WT-7), spray 560 g ae/ha 2,4-D
[6] = Maverick WT individual plants (WT-10, WT-8, WT-9), spray 1120 g ae/ha 2,4-D

SMILES	Average % injury 14 DAT ([1]; 1120 g ae/ha) [%]	Average % injury 14 DAT ([1]; 2240 g ae/ha) [%]	Average % injury 14 DAT ([1]; 4480 g ae/ha) [%]	Average % injury 14 DAT (KY160 control tobacco; 2240 g ae/ha 2,4-D) [%]	Average % injury 14 DAT (KY160 control tobacco; 8960 g ae/ha 2,4-D) [%]	Average % injury 14 DAT (KY160 control tobacco; 35840 g ae/ha 2,4-D) [%]	Average % injury 14 DAT (T1 AAD-12 (v1) tobacco; 2240 g ae/ha 2,4-D) [%]	Average % injury 14 DAT (T1 AAD-12 (v1) tobacco; 8960 g ae/ha 2,4-D) [%]	Average % injury 14 DAT (T1 AAD-12 (v1) tobacco; 35840 g ae/ha 2,4-D) [%]	response to herbicide spray application ([2]; 560 g ae/ha 2,4-D, 7-14 DAT)	response to herbicide spray application ([2]; 1120 g ae/ha 2,4-D)	% injury 2 DAT [2, 5]	% injury 7 DAT [2, 5]	% injury 14 DAT [2, 5]	% injury 2 DAT [2, 6] [%]	% injury 7 DAT [2, 6]	% injury 14 DAT [2, 6] [%]	lethal concentration of 2,4-D [3] [mg/L]	sub lethal concentration of 2,4-D [3] [mg/L]	Leaf flip assay (18 HAT) Node N-2 [4]
CNC.O=C(O)COc1ccc(Cl)cc1Cl [2,4-D DMA]	20	35	50																	
O=C(O)COc1ccc(Cl)cc1Cl [2,4-D, 2,4-dichlorophenoxyacetic acid]				95	99	100	0	0	4	severely injured	killed	50% and 70% (2×)	60% and 90% and 80%	60% and 80% (2×)	70	90% and 95% (2×)	100	10	8	1
